Entries after “also recorded” stand apart in the source; their conditions may differ.
Legend:
[1] = Incubation of Compound A with pooled human liver microsomes and NADPH-generating system; format: in vitro ADME
Description: (§1) Compound C was prepared via a biotransformation from Compound A. In vitro incubations of Compound A (1, 5 and 50 μM) were performed with pooled human liver microsomes and CYP3A4 SUPERSOMES®. This radiolabel allowed tracking of all the metabolites of Compound A. For this procedure, Compound A was synthesized by inserting a ^14C in the 4 position as indicated in the ring member numbering scheme below.
(§2) Incubation mixtures contained cytochrome P450 (1 nmol/mL for human liver microsomes or 0.2 nmol/mL for CYP3A4), β-NADP^+ (1 mM), glucose-6-phosphate (5 mM), glucose-6-phosphate dehydrogenase (1.5 units/mL) and 3 mM magnesium chloride in 0.5 mL of 50 mM potassium phosphate buffer (pH 7.4). Prior to the addition of drug, incubation mixtures were pre-incubated for 3 min at about 37° C. […] Boiled human liver microsomes and incubations without NADPH served as negative control. […]
(§3) Radiometric profiles of metabolites following 120 min incubation of Compound A (50 μM) with CYP3A4, Human Liver Microsomes, and Insect Microsomes, all with a NADPH-generating system, are shown in FIGS. 1, 2, and 3, respectively. In these figures, the y-axis reflects radioactivity of the eluted species and has units of counts per minute, while the x-axis reflects time of elution and has units of minutes. […] Mass-to-charge ratios are measured by mass spectrometry.

[2] = molecular target: T1, CYP3A4 (Homo sapiens, UniProt P08684); experiment: Incubation of Compound A with CYP3A4 SUPERSOMES and NADPH-generating system; format: in vitro ADME
T1 construct: purchased; host or cells: An insect cell host is inferred from the 'Insect Microsomes' control
T1 sequence (P08684 whole entry): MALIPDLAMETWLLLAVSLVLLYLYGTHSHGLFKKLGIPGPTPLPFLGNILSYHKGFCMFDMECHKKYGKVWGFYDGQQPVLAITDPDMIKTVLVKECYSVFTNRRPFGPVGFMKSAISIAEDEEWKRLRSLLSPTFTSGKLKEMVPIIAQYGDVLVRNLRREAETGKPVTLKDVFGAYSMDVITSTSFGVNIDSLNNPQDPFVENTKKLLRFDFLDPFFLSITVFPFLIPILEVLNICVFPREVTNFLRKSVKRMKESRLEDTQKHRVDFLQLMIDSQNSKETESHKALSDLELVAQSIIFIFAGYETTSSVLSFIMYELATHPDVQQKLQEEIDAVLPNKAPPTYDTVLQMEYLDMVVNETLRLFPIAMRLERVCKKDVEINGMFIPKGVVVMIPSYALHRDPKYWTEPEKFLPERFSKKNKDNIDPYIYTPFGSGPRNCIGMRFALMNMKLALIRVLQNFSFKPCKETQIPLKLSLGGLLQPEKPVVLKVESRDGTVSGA
Description: as §1, §2, §3

[3] = molecular target: T2, PDE 5 (Homo sapiens, UniProt O76074); experiment: PDE 5 inhibitory activity; format: biochemical; details: target not stated at the place; PDE 5 from context
[4] = Circulating metabolites after single oral administration of Compound A to humans; format: in vivo; details: single administration of Compound A 100 mg PO
[5] = molecular target: T2, PDE 5; details: disclosed in U.S. Ser. No. 09/940,760; cited from earlier work
[6] = Incubation of Compound A with Control Insect Microsomes and NADPH-generating system; format: in vitro ADME; details: Compound A 50 μM, 120 min, Control Insect Microsomes, FIG. 3
Description: Incubation mixtures contained cytochrome P450 (1 nmol/mL for human liver microsomes or 0.2 nmol/mL for CYP3A4), β-NADP^+ (1 mM), glucose-6-phosphate (5 mM), glucose-6-phosphate dehydrogenase (1.5 units/mL) and 3 mM magnesium chloride in 0.5 mL of 50 mM potassium phosphate buffer (pH 7.4). Prior to the addition of drug, incubation mixtures were pre-incubated for 3 min at about 37° C. […] Boiled human liver microsomes and incubations without NADPH served as negative control. A discussion of HPLC is provided in “HPLC in Pharmaceutical Analysis,” vol. I, G. Szepesi (1990). A discussion of mass spectrometry is provided in “Remington: The Science and Practice of Pharmacy,” 20th Ed., D. Limmer, ed., pp. 636-639 (2000).
Radiometric profiles of metabolites following 120 min incubation of Compound A (50 μM) with CYP3A4, Human Liver Microsomes, and Insect Microsomes, all with a NADPH-generating system, are shown in FIGS. 1, 2, and 3, respectively. In these figures, the y-axis reflects radioactivity of the eluted species and has units of counts per minute, while the x-axis reflects time of elution and has units of minutes. Each peak represents one or more compounds, and each of the more significant peaks is labeled with the mass-to-charge ratio value (m/z) of that compound. Mass-to-charge ratios are measured by mass spectrometry.

SMILES	metabolite formed from Compound A (radiometric profile) ([1]; Compound A 50 μM, 120 min, Human Liver Microsomes, FIG. 2)	metabolite formed from Compound A (radiometric profile) ([2]; Compound A 50 μM, 120 min, CYP3A4, FIG. 1)	IC50 [3]	circulating metabolite in human [4]	extent of metabolism ([1]; 1, 5 and 50 μM, human liver microsomes 1 nmol/mL, NADPH-generating system)	PDE 5 inhibitory activity [5]	activity with respect to the formation of Compound C ([2]; 50 μM Compound A, cDNA-expressed CYP3A4)	metabolite formation [6]
CCn1c(=O)c2c(nc(N)n2Cc2ccc(OC)c(Br)c2)n(CCO)c1=O [Compound C, 8-Amino-7-[(3-Bromo-4-Methoxyphenyl)Methyl]-1-Ethyl-3,7-Dihydro-3-(2-Hydroxyethyl)-1H-Purine-2,6-Dione]	significant metabolite	significant metabolite	71 nM	one of the major circulating metabolites; also recorded: prominent circulating metabolite				
CCn1c(=O)c2c(nc(N[C@@H]3CCC[C@H]3O)n2Cc2ccc(OC)c(Br)c2)n(CCO)c1=O [Compound A]					metabolized extensively	having PDE 5 inhibitory activity	exhibited the greatest activity	no major metabolite formation was observed
